Measured values taken from ChEMBL document CHEMBL3045530, “Synthesis, antimycobacterial, antiviral, antimicrobial activities, and QSAR studies of isonicotinic acid-1-(substituted phenyl)-ethylidene/cycloheptylidene hydrazides” (Med Chem Res, 2012).
Converted amounts (≈) assume the structure as drawn.

Key:
Coxsackievirus B4 [1] = test: Antiviral activity against Human coxsackievirus B4 infected Vero cells assessed as inhibition of virus-induced cytopathicity; assay type: functional, organism-based; conditions: Enterovirus B
Coxsackievirus B4 [2] = test: Antiviral activity against Human coxsackievirus B4 infected human HeLa cells assessed as inhibition of virus-induced cytopathicity by microscopy; assay type: functional, organism-based; conditions: Enterovirus B
[3] = system: Human herpesvirus 3 strain Oka vaccine; test: Antiviral activity against Human herpesvirus 3 strain Oka vaccine OKA 07-1 (Varicella zoster virus ) infected in human HEL cells assessed as inhibition of virus-induced cytopathicity; assay type: functional, organism-based; conditions: Human alphaherpesvirus 3, HEL
HEL = test: Cytostatic against Homo sapiens (human) HEL cells assessed as alteration in cell morphology by microscopy; assay type: ADME, cell-based
[4] = Cytotoxicity against Homo sapiens (human) MT4 cells after 4 days by MTT assay; assay type: cell-based
[5] = Cytotoxicity against Homo sapiens (human) HEL cells assessed as alteration in cell morphology by microscopy; assay type: cell-based; conditions: for MCC: read-out: MTC
Candida albicans = test: Antimicrobial activity against Candida albicans after 48 hr by tube dilution method; assay type: functional
[6] = system: Respiratory syncytial virus; test: Antiviral activity against Respiratory syncytial virus infected human HeLa cells assessed as inhibition of virus-induced cytopathicity by microscopy; assay type: functional, organism-based
Escherichia coli = test: Antimicrobial activity against Escherichia coli after 24 hr by tube dilution method; assay type: functional
[7] = system: Vesicular stomatitis virus; test: Antiviral activity against Vesicular stomatitis virus infected human HeLa cells assessed as inhibition of virus-induced cytopathicity by microscopy; assay type: functional, organism-based
Sindbis virus = test: Antiviral activity against Sindbis virus infected Vero cells assessed as inhibition of virus-induced cytopathicity; assay type: functional, organism-based
Aspergillus niger = test: Antimicrobial activity against Aspergillus niger after 7 days by tube dilution method; assay type: functional
Staphylococcus aureus = test: Antimicrobial activity against Staphylococcus aureus after 24 hr by tube dilution method; assay type: functional
[8] = system: Human herpesvirus 5 strain AD169; test: Antiviral activity against Human herpesvirus 5 strain AD169 Davis infected human HEL cells assessed as inhibition of virus-induced cytopathicity by microscopy; assay type: functional, organism-based; conditions: Human betaherpesvirus 5, Davis
[9] = Cytotoxicity against Homo sapiens (human) HeLa cells assessed as alteration in cell morphology by microscopy; assay type: cell-based; conditions: read-out: MTC
Bacillus subtilis = test: Antimicrobial activity against Bacillus subtilis after 24 hr by tube dilution method; assay type: functional
[10] = system: Mammalian orthoreovirus 1; test: Antiviral activity against Mammalian orthoreovirus 1 infected Vero cells assessed as inhibition of virus-induced cytopathicity by microscopy; assay type: functional, organism-based; conditions: Mammalian orthoreovirus 1, Vero
[11] = system: Human immunodeficiency virus 2; test: Antiviral activity against Human immunodeficiency virus type 2 (ISOLATE ROD) infected MT4 cells assessed as inhibition of virus-induced cytopathic effect after 4 days by MTT assay; assay type: functional, organism-based; conditions: Human immunodeficiency virus 2, ISOLATE ROD, MT4, 96 h
Human alphaherpesvirus 2 = test: Antiviral activity against Human herpesvirus 2 strain G infected human HEL cells assessed as inhibition of virus-induced cytopathicity by microscopy; assay type: functional, organism-based; conditions: Human alphaherpesvirus 2, strain G
Human respirovirus 3 = test: Antiviral activity against Human parainfluenza virus 3 infected Vero cells assessed as inhibition of virus-induced cytopathicity by microscopy; assay type: functional, organism-based; conditions: Human respirovirus 3, Vero
Punta Toro virus = test: Antiviral activity against Punta Toro virus infected Vero cells assessed as inhibition of virus-induced cytopathicity; assay type: functional, organism-based
[12] = system: Human immunodeficiency virus 1; test: Antiviral activity against Human immunodeficiency virus 1 IIIB infected MT4 cells assessed as inhibition of virus-induced cytopathic effect after 4 days by MTT assay; assay type: functional, organism-based; conditions: MT4, 96 h
Vaccinia virus = test: Antiviral activity against Vaccinia virus infected human HEL cells assessed as inhibition of virus-induced cytopathicity by microscopy; assay type: functional, organism-based; conditions: Orthopoxvirus vaccinia
[13] = Cytotoxicity against Chlorocebus aethiops (African green monkey) Vero cells assessed as alteration in cell morphology by microscopy; assay type: cell-based; conditions: chlorocebus sabaeus, read-out: MTC
Human alphaherpesvirus 1 [14] = test: Antiviral activity against TK(-) aciclovir-resistant Human herpesvirus 1 strain KOS infected in human HEL cells assessed as inhibition of virus-induced cytopathicity; assay type: functional, organism-based; conditions: Human alphaherpesvirus 1, KOS
Human alphaherpesvirus 1 [15] = test: Antiviral activity against Human herpesvirus 1 strain KOS infected human HEL cells assessed as inhibition of virus-induced cytopathicity by microscopy by microscopy; assay type: functional, organism-based; conditions: Human alphaherpesvirus 1, KOS

SMILES: O=C(NN=C1CCCCCC1)c1ccncc1 [N'-CYCLOHEPTYLIDENEISONICOTINOHYDRAZIDE]
- EC50 (Coxsackievirus B4 [1]): > 100 µg/mL
- EC50 (Coxsackievirus B4 [2]): > 100 µg/mL
- EC50 [3]: > 100 µg/mL
- Activity (HEL): Toxic
- CC50 at 96 h [4]: 86 µg/mL (≈ 372 µM)
- CC50 [5]: > 100 µg/mL
- MCC [5]: > 100 µg/mL
- -logMIC (Candida albicans): 1.66
- EC50 [6]: > 100 µg/mL
- -logMIC (Escherichia coli): 1.36
- EC50 [7]: > 100 µg/mL
- EC50 (Sindbis virus): > 100 µg/mL
- -logMIC (Aspergillus niger): 1.66
- -logMIC (Staphylococcus aureus): 1.66
- EC50 [8]: > 100 µg/mL
- MCC [9]: > 100 µg/mL
- -logMIC (Bacillus subtilis): 1.66
- EC50 [10]: > 100 µg/mL
- EC50 [11]: > 86 µg/mL
- EC50 (Human alphaherpesvirus 2): > 100 µg/mL
- EC50 (Human respirovirus 3): > 100 µg/mL
- EC50 (Punta Toro virus): > 100 µg/mL
- EC50 [12]: > 86 µg/mL
- EC50 (Vaccinia virus): > 100 µg/mL
- MCC [13]: > 100 µg/mL
- EC50 (Human alphaherpesvirus 1 [14]): > 100 µg/mL
- EC50 (Human alphaherpesvirus 1 [15]): > 100 µg/mL

SMILES: C/C(=N\NC(=O)c1ccncc1)c1ccc(Cl)cc1Cl
- EC50 (Coxsackievirus B4 [1]): > 20 µg/mL
- EC50 (Coxsackievirus B4 [2]): > 20 µg/mL
- EC50 [3]: > 20 µg/mL
- Activity (HEL): Toxic
- CC50 at 96 h [4]: 38 µg/mL (≈ 123 µM)
- CC50 [5]: 11 µg/mL (≈ 35.7 µM)
- MCC [5]: > 100 µg/mL
- -logMIC (Candida albicans): 2.69
- EC50 [6]: > 20 µg/mL
- -logMIC (Escherichia coli): 2.39
- EC50 [7]: > 20 µg/mL
- EC50 (Sindbis virus): > 20 µg/mL
- -logMIC (Aspergillus niger): 2.39
- -logMIC (Staphylococcus aureus): 2.09
- EC50 [8]: > 20 µg/mL
- MCC [9]: 100 µg/mL
- -logMIC (Bacillus subtilis): 2.09
- EC50 [10]: > 20 µg/mL
- EC50 [11]: > 38 µg/mL
- EC50 (Human alphaherpesvirus 2): > 100 µg/mL
- EC50 (Human respirovirus 3): > 20 µg/mL
- EC50 (Punta Toro virus): > 20 µg/mL
- EC50 [12]: > 38 µg/mL
- EC50 (Vaccinia virus): > 100 µg/mL
- MCC [13]: 100 µg/mL
- EC50 (Human alphaherpesvirus 1 [14]): > 100 µg/mL
- EC50 (Human alphaherpesvirus 1 [15]): > 100 µg/mL
